Test results taken from publication PMC9127750, “Structure-based design of CDC42 effector interaction inhibitors for the treatment of cancer” (Cell reports, 2022).

Test system: WM3248 melanoma cells, 486 antibodies
Experiment: Reverse phase protein arrays (RPPA);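 on CA9.R.C RPPA level: ratio of treated to vehicle (0 µM) normalized linear protein signal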;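 on RPPA ACC1.R.C: ratio of treated to vehicle (0 µM) normalized linear protein signal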;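 on RPPA ASNS.R.V: ratio of treated to vehicle (0 µM) normalized linear protein signal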;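 on RPPA AceCS1.R.V: ratio of treated to vehicle (0 µM) normalized linear protein signal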;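 on RPPA Akt1.R.V: ratio of treated to vehicle (0 µM) normalized linear protein signal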;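 on RPPA Ambra1 pS52.R.C: ratio of treated to vehicle (0 µM) normalized linear protein signal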;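 on RPPA Atg5.R.C: ratio of treated to vehicle (0 µM) normalized linear protein signal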;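 on RPPA Bim.R.V: ratio of treated to vehicle (0 µM) normalized linear protein signal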
Type: cell-based, Human
Settings: 5 uM
Source text: Pellets were snap frozen in liquid nitrogen and shipped to MD Anderson Cancer Center core RPPA facility for RPPA analysis (Table S5). Three biological replicates for each sample were generated.
Nomenclatures on the RPPA heatmaps: name_of_antibody.species_of_antibody.status_of_antibody. V - antibody validated; C - validation of antibody in progress; Q - antibody nonspecific; E – under evaluation; antibodies raised in M - mouse, G - goat, R - rabbit, or T - rat.

CN(C)c1cccc(Nc2cc(-c3ccccc3)nc(C3CCNCC3)n2)c1 [ARN22089, N1,N1-dimethyl-N3-(6-phenyl-2-(piperidin-4-yl)pyrimidin-4-yl)benzene-1,3-diamine]
RPPA Akt_pT308.R.V (5W3): 0.946 | RPPA Ambra1_pS52.R.C (5W3): 0.917 | RPPA Annexin.I.M.V (5W3): 0.971 | RPPA Annexin.VII.M.V (5W3): 1.007 | RPPA Atg3.R.V (5W3): 1.133 | RPPA Atg4B.R.C (5W3): 1.148 | RPPA Atg5.R.C (5W3): 0.936 | RPPA Atg7.R.V (5W3): 1.164 | RPPA Aurora.A.R.C (5W3): 1.000 | RPPA Aurora.ABC_pT288_pT232_pT198.R.C (5W3): 0.878 | RPPA Aurora.B.R.V (5W3): 0.688 | RPPA Axl.R.V (5W3): 1.276 | RPPA B7.H4.R.C (5W3): 1.076 | RPPA B.Raf_pS445.R.V (5W3): 1.159 | RPPA BAP1.M.V (5W3): 0.823 | RPPA BCL2A1.R.V (5W3): 0.750 | RPPA BMK1.Erk5_pT218_Y220.R.V (5W3): 1.014 | RPPA BRCA1.M.C (5W3): 0.946 | RPPA BRD4.R.V (5W3): 1.138 | RPPA Bad_pS112.R.V (5W3): 1.056 | RPPA Bak.R.C (5W3): 1.134 | RPPA Bax.R.V (5W3): 0.916 | RPPA Bcl2.R.C (5W3): 0.798 | RPPA Bcl.xL.R.V (5W3): 0.681 | RPPA Beclin.R.C (5W3): 0.789 | RPPA Bid.R.C (5W3): 1.142 | RPPA Bim.R.V (5W3): 0.991 | RPPA X4E.BP1.R.V (5W3): 1.157 | RPPA X4E.BP1_pT37_T46.R.V (5W3): 0.968 | RPPA X14.3.3.zeta.R.V (5W3): 0.946 | RPPA X14.3.3βR.V (5W3): 1.033 | RPPA X14.3.3εM.C (5W3): 0.879 | RPPA X53BP1.R.V (5W3): 0.922 | RPPA b.Catenin.R.V (5W3): 0.837 | RPPA b.Catenin_pT41_S45.R.V (5W3): 0.998 | RPPA c.Abl.R.V (5W3): 1.059 | RPPA c.Abl_pY412.R.C (5W3): 1.150 | RPPA c.IAP2.R.C (5W3): 1.026 | C.Raf.R.C RPPA level (Average): 1.065 | C.Raf_pS338.R.V RPPA level (Average): 1.113 | CA9.R.C RPPA level (Average): 0.982 | CD2.M.C RPPA level (Average): 1.031 | CD4.R.V RPPA level (Average): 1.062 | CD5.M.C RPPA level (Average): 1.017 | CD20.R.C RPPA level (Average): 0.788 | CD26.R.V RPPA level (Average): 0.939 | CD29.M.V RPPA level (Average): 1.028 | CD31.M.V RPPA level (Average): 1.028 | CD44.R.C RPPA level (Average): 0.921 | CD45.M.V RPPA level (Average): 1.027 | CD49b.M.V RPPA level (Average): 0.960 | CD68.M.C RPPA level (Average): 1.012 | CD74.M.V RPPA level (Average): 0.998 | CD134.R.V RPPA level (Average): 1.020 | CD171.M.V RPPA level (Average): 0.844 | CDK1_pT14.R.C RPPA level (Average): 1.060 | CDK9.R.V RPPA level (Average): 0.980 | CDT1.R.V RPPA level (Average): 1.028 | CENP.A.R.V RPPA level (Average): 0.953 | CHD1L.R.V RPPA level (Average): 1.018 | CIITA.R.C RPPA level (Average): 0.895 | COG3.R.V RPPA level (Average): 1.097 | CRABP1.R.C RPPA level (Average): 1.004 | CRABP2.R.V RPPA level (Average): 1.035 | CREB_pS133.R.C RPPA level (Average): 1.124 | CSK.R.C RPPA level (Average): 0.918 | Calnexin.R.V RPPA level (Average): 0.992 | Caspase.7.cleaved..R.C RPPA level (Average): 1.029 | Caspase.8.M.Q RPPA level (Average): 0.956 | Caspase.8.cleaved.R.C RPPA level (Average): 1.054 | Cdc6.R.V RPPA level (Average): 0.980 | Cdc42.R.C RPPA level (Average): 1.028 | Chk1_pS296.R.V RPPA level (Average): 1.083 | Chk1_pS345.R.C RPPA level (Average): 0.981 | Chk2.M.V RPPA level (Average): 0.925 | Chk2_pT68.R.C RPPA level (Average): 1.151 | Claudin.7.R.V RPPA level (Average): 0.907 | Collagen.VI.R.V RPPA level (Average): 1.059 | Complex.II.Subunit.M.V RPPA level (Average): 0.933 | Connexin.43.R.C RPPA level (Average): 1.140 | Coup.TFII.R.C RPPA level (Average): 1.033 | Cox2.R.C RPPA level (Average): 1.057 | Cox.IV.R.V RPPA level (Average): 1.028 | Creb.R.C RPPA level (Average): 1.080 | CtIP.R.V RPPA level (Average): 0.961 | Cyclin.B1.R.V RPPA level (Average): 1.030 | Cyclin.D1.R.C RPPA level (Average): 1.001 | Cyclin.D3.M.V RPPA level (Average): 1.046 | Cyclin.E1.R.V RPPA level (Average): 0.995 | Cyclophilin.F.M.V RPPA level (Average): 0.908 | D.a.Tubulin.R.V RPPA level (Average): 1.114 | DAPK1_pS308.M.C RPPA level (Average): 0.822 | DDB.1.R.V RPPA level (Average): 1.124 | DDR1.R.V RPPA level (Average): 0.952 | DDR1_pY513.R.C RPPA level (Average): 1.021 | DJ1.R.V RPPA level (Average): 1.059 | DM.K9.Histone.H3.M.V RPPA level (Average): 0.994 | DNA.Ligase.IV.R.C RPPA level (Average): 1.104 | DNA_POLG.R.V RPPA level (Average): 0.927 | RPPA A.Raf.R.V (Average): 1.059 | RPPA A.Raf_pS299.R.C (Average): 0.992 | RPPA ACC1.R.C (Average): 1.065 | RPPA ACC_pS79.R.V (Average): 0.961 | RPPA ACLY_pS455.R.V (Average): 0.986 | RPPA ACSL1.R.V (Average): 0.842 | RPPA ACVRL1.R.C (Average): 0.970 | RPPA ADAR1.M.V (Average): 1.014 | RPPA ALKBH5.R.V (Average): 0.919 | RPPA AMPK.a2_pS345.R.V (Average): 1.081 | RPPA AMPKa.R.C (Average): 1.048 | RPPA AMPKa_pT172.R.C (Average): 1.331 | RPPA AR.R.V (Average): 1.032 | RPPA ARID1A.R.C (Average): 1.009 | RPPA ASNS.R.V (Average): 1.062 | RPPA ATM.R.V (Average): 1.153 | RPPA ATM_pS1981.R.V (Average): 0.964 | RPPA ATP5A.M.C (Average): 0.801 | RPPA ATP5H.R.V (Average): 0.961 | RPPA ATR.R.V (Average): 0.966 | RPPA ATRX.R.C (Average): 1.030 | RPPA ATR_pS428.R.C (Average): 1.061 | RPPA AceCS1.R.V (Average): 0.899 | RPPA Akt1.R.V (Average): 0.928 | RPPA Akt1_pS473.R.V (Average): 1.048 | RPPA Akt2.R.V (Average): 1.002 | RPPA Akt2_pS474.R.C (Average): 1.185 | RPPA Akt.R.V (Average): 1.002 | RPPA Akt_pS473.R.V (Average): 1.132 | RPPA Akt_pT308.R.V (Average): 0.940 | RPPA Ambra1_pS52.R.C (Average): 0.946 | RPPA Annexin.I.M.V (Average): 1.026 | RPPA Annexin.VII.M.V (Average): 0.993 | RPPA Atg3.R.V (Average): 1.035 | RPPA Atg5.R.C (Average): 0.970 | RPPA Atg7.R.V (Average): 0.970 | RPPA Aurora.A.R.C (Average): 0.940 | RPPA Aurora.ABC_pT288_pT232_pT198.R.C (Average): 0.876 | RPPA Aurora.B.R.V (Average): 0.890 | RPPA Axl.R.V (Average): 1.076 | RPPA B7.H3.R.C (Average): 1.022 | RPPA B7.H4.R.C (Average): 1.046 | RPPA B.Raf.R.C (Average): 1.049 | RPPA BAP1.M.V (Average): 0.921 | RPPA BCL2A1.R.V (Average): 0.906 | RPPA BMK1.Erk5_pT218_Y220.R.V (Average): 0.997 | RPPA Bad_pS112.R.V (Average): 1.055 | RPPA Bax.R.V (Average): 0.956 | RPPA Bcl2.R.C (Average): 0.897 | RPPA Bcl.xL.R.V (Average): 0.932 | RPPA Beclin.R.C (Average): 0.921 | RPPA BiP.GRP78.M.C (Average): 0.957 | RPPA Bid.R.C (Average): 1.077 | RPPA Bim.R.V (Average): 0.984 | RPPA DNMT1.R.V (Average): 0.995 | RPPA DRP1.R.V (Average): 1.010 | RPPA DUSP4.R.V (Average): 1.114 | RPPA DYRK1B.R.C (Average): 1.013 | RPPA Dvl3.R.V (Average): 1.014 | RPPA E2F1.R.V (Average): 0.961 | RPPA E.Cadherin.R.V (Average): 0.957 | RPPA EGFR.R.V (Average): 0.980 | RPPA EGFR_pY1068.R.C (Average): 0.993 | RPPA EGFR_pY1173.R.V (Average): 1.046
